These results are taken from article PMC10610134, “Verubulin (Azixa) Analogues with Increased Saturation: Synthesis, SAR and Encapsulation in Biocompatible Nanocontainers Based on Ca^2+ or Mg^2+ Cross-Linked Alginate” (Pharmaceuticals, 2023).

Structures are written as SMILES. “Also recorded” adds a separate entry of the source. Like-named read-outs stand apart in the source and are kept apart here.

The test system of data set [1] is A549. As to conditions: cited from earlier work.
Data set [2] concerns immortalized human embryonic kidney cell line HEK293T. In words: MTT cytotoxicity assay, HEK293T. The data set is classed as cell-based. The note with it: HEK-293T, read-out: IC50, nM HEK293T. From the text: (§1) The obtained series of verubulin analogues 2a–r (which also included three by-products isolated in the reactions according to Scheme 2) were initially evaluated for cytotoxicity against commonly used human breast cancer cell line MCF7′ (fast-growth subclone), human lung epithelial carcinoma cell line A549 and etiologically non-cancer immortalized lung fibroblast cell line VA13 (WI38 subline 2RA). Cytotoxicity against immortalized human embryonic kidney cell line HEK293T, characterized by a high growth rate, was also studied regarding cytotoxicity against non-cancerous fast-growth cells. A standard MTT assay was performed; verubulin (1) served as a positive reference. The data obtained are presented in Table 1 (for dose–response curves, see Supplementary Materials).
(§2) Human breast cancer cell line MCF7′ and human lung adenocarcinoma cell line A549 were kindly provided by Dr. S. Dmitriev (Lomonosov Moscow State University), immortalized human fibroblast cell line VA13 (WI38 subline 2RA) was kindly provided by Dr. M. Rubtsova (Lomonosov Moscow State University), human embryonic kidney HEK293T cell line was kindly provided by Dr. E. Knyazhanskaya (Lomonosov Moscow State University). MCF7′, VA13, A549 and HEK293T cell lines were maintained in DMEM/F-12 (Thermo Fisher Scientific, Waltham, MA, USA) culture medium containing 10% fetal bovine serum (Thermo Fisher Scientific, Waltham, MA, USA) and 50 μg/mL penicillin and 0.05 mg/mL streptomycin at 37 °C (Thermo Fisher Scientific, Waltham, MA, USA) in 5% CO2. Cells were maintained at 37 °C in a humidified MCO-18AC incubator (Sanyo, Tokyo, Japan) supplied with 5% CO2. Cell cultures were tested for the absence of mycoplasma and validated by STR.
(§3) The cytotoxicity of the substances was tested using the 3-(4,5-dimethylthiazol-2-yl)2,5-diphenyl tetrazolium bromide (MTT) assay with some modifications. A total of 2500 cells per well for the MCF7′, HEK293T, A549 cell lines or 4000 cells per well for the VA-13 cell line were plated out in 135 μL of DMEM-F12 media (Gibco, Thermo Fisher Scientific, Waltham, MA, USA) in a 96-well plate and incubated in the 5% CO2 incubator for the first 20 h without treatment. Then, 15.8 μL of media–DMSO solutions of tested substances (final DMSO concentrations in the media were 0.5% or less) was added to the cells (triplicate each) and cells were treated for 64 h with 0.023 mg/L–50 mg/L (eight dilutions) of compounds 2f,n,o,r; 1.14 μg/L–2.5 mg/L (eight dilutions) of compounds 2a,b,d,g,h,k,l,p,q; 57.2 ng/L–125 μg/L (eight dilutions) of compounds 2e,i,j; 22.9 ng/L–50 μg/L (eight dilutions) of compounds 1,2c,m. Doxorubicin was used as a control substance. Then, the MTT reagent (Paneco LLC, Moscow, Russia) was added to cells up to a final concentration of 0.5 g/L (10 × stock solution in PBS was used) and incubated for 2 h at 37 °C in the incubator, under an atmosphere of 5% CO2. Then, the MTT solution was discarded, and 140 μL of DMSO (PharmaMed LLC, Moscow, Russia) was added. The plates were swayed on a shaker (120 rpm) to dissolve the formazan. The absorbance was measured using a microplate reader (VICTOR X5 Light Plate Reader, PerkinElmer, Waltham, MA, USA) at a wavelength of 555 nm (in order to measure formazan concentration). The results were used to construct dose–response graphs and to estimate IC50 values (IC50 is the concentration resulting in half of the maximal cytotoxic effect) with GraphPad Prism V, GraphPadSoftware, Inc., San Diego, CA, USA.
Background: Tetrazolium assays rely on reduction of a dye to a coloured formazan, in cell work by metabolically active cells.

The test system of data set [3] is immortalized lung fibroblast cell line VA13 (WI38 subline 2RA). In words: MTT cytotoxicity assay, VA13. The note with it: Homo sapiens, read-out: IC50, nM VA13. The data set is classed as cell-based.
Source text: as §1, §2, §3

For data set [4], the system named is human lung epithelial carcinoma cell line A549. Nature of the data set: MTT cytotoxicity assay, A549. The data set is classed as cell-based. As to conditions: read-out: IC50, nM A549.
Source text: as §1, §2, §3

Data set [5] relates to MCF7/MCF10A. Set-up: method as in PMID 36802449. The note with it: cited from earlier work.
For data set [6], the system named is HCT116 cell line. Nature of the data set: MTT cytotoxicity towards HCT116. The data set is classed as cell-based, human. As to conditions: HCT-116.
For data set [7], the system named is human breast cancer cell line MCF7′. Nature of the data set: MTT cytotoxicity assay, MCF7′. The data set is classed as cell-based. As to conditions: read-out: IC50, nM MCF7′.
Source text: as §1, §2, §3

For data set [8], the system named is HCT116 cells. Nature of the data set: Apoptosis induction, Annexin V / 7-AAD flow cytometry. Type of data set: cell-based, human. As to conditions: for Live (viable cells): human, 48 h. The protocol:
Apoptosis is an important and active regulatory pathway of cell growth and proliferation. Annexin V is a calcium-dependent phospholipid-binding protein with a high affinity for phosphatidylserine (PS), a membrane component normally localized to the internal face of the cell membrane. Early in the apoptotic pathway, molecules of PS are translocated to the outer surface of the cell membrane where Annexin V can readily bind them.
After incubation, the cells were harvested by trypsinization, precipitated by centrifugation (3000 rpm), washed with cold PBS and recentrifuged. Aliquots of cells were processed as recommended in the Muse Annexin V& Dead Cell Kit (Luminex Corporation, Austin, TX, USA). The results were recorded on a Muse Cell Analyzer flow cytometer (Merck, Rahway, NJ, USA).
For orientation: Flow cytometry measures light scatter and fluorescence of single cells or particles in a stream.

Data set [9] relates to MCF7′, A549, VA13, HEK293T cell lines. Nature of the data set: MTT cytotoxicity, SAR statements over the cell line panel. Type of data set: cell-based, human. The note with it: for selectivity towards tumor cells: pair A549/VA13.
Source text: as §1, §3

Data set [10] concerns tubulin (Tb) and microtubule-associated proteins (MAPs) from mouse brains. Nature of the data set: Tubulin + MAP polymerization assay. Type of data set: biochemical. As to conditions: GTP-dependent polymerization, read-out: IC50 of tubulin polymerization (initial rates, optical density at 355 nm).
In data set [11] the test system is microtubules in carcinoma A549 cells. Nature of the data set: Immunofluorescent microscopy of microtubules. The data set is classed as cell-based, human. As to conditions: 24 h, A549. As for the experimental part: Since verubulin is known to stimulate microtubule disassociation, we performed an immunofluorescent microscopy study to determine the response of microtubule dynamics in carcinoma A549 cells to the treatment with representative compounds 2b,c,e. […] Aberrant cell morphology—contraction and rounding (Figure 2A,B) or contraction and elongation (Figure 2C)—was also observed.
A549 cells were seeded on coverslips (treated with poly-l-lysine at a concentration of 33 mg/L for an hour). Compounds were added up to the corresponding concentration after 24 h attachment and growth of the cells. Then, cells were incubated 24 h.
The cells were fixed with methanol (precooled in liquid nitrogen for 20 min), no additional permeabilization was performed. To prevent non-specific binding, cells were incubated with 4% BSA in PBS for one hour. Then, a solution of mouse monoclonal antibodies against alpha-tubulin cross-linked with Alexa 488 fluoroform (Thermo Fisher Scientific, Waltham, MA, USA, 32-2588) at a concentration of 5 μg/mL in 1% BSA solution in PBS was added to the cells, and the slides were incubated at +5 °C in a water chamber for 24 h. After the end of the incubation time, the cells were washed several times with PBS buffer solution and fixed on a glass slide with Moviol. Next day, cells were imaged with a ZEISS LSM 900 (ZEISS Microscopy, GmbH, Germany) and images processed with ImageJ.

Setting [12] is: HCT116, human colon carcinoma, read-out: IC50.
[13] abbreviates: 2 × IC50, 48 h, HCT116, listed as verubulin (1).

As to `COc1ccc2c(c1)NC(=O)CN2c1nc(C)nc2c1CCC2` [Banerjee 2021], in [1], the IC50 is 4.5 nM.

Consider `COc1ccc(N(C)c2nc(Cl)nc3c2CCCC3)cc1` [Tan 2023], for which the IC50 in [1] was 4.7 nM.

`COc1ccc(N(C)c2nc(Cl)nc3c2CCCC3)cc1` [Compound 2m, 2-Chloro-N-(4-methoxyphenyl)-N-methyl-5,6,7,8-tetrahydroquinazolin-4-amine]: the IC50 amounted to 2.7 ± 0.12 nM in data set [2] (64 h treatment, MTT); 1.3 ± 0.18 nM in [3] (VA-13, 64 h treatment, MTT); 3 ± 0.2 nM in data set [4] (A549, 64 h treatment, MTT); 1.8 ± 0.1 nM in [6] (setting [12]); 3.3 ± 0.14 nM in data set [7] (MCF7, 64 h treatment, MTT). Further, the “selectivity in the pair MCF7/MCF10A” value in [5] was “selective”. The “Live (viable cells)” value in [8] was found to be 52.58%. Besides, in data set [9], the “selectivity towards tumor cells” value is reported as “no selectivity”.

With `COc1ccc2c(c1)CCCN2c1nc(C)nc2ccccc12` [Wang 2013], in [1], the GI50 was 17.8 nM.

Take `COc1ccc2c(c1)CCCN2c1nc(N)nc2c1CCCC2` [Compound 2j, 2-Amino-4-(6-methoxy-3,4-dihydroquinolin-1(2H)-yl)-5,6,7,8-tetrahydroquinazoline]: the IC50 in data set [2] (64 h treatment, MTT) worked out at 28.9 ± 6.6 nM; in data set [3] (VA-13, 64 h treatment, MTT) it was 14.5 ± 3.9 nM; in [4] (A549, 64 h treatment, MTT), 50.5 ± 11.1 nM; in [6] (setting [12]), 160 ± 30 nM; in data set [7] (MCF7, 64 h treatment, MTT), 40.2 ± 7.8 nM. For the same compound, the “Early Apop. (Annexin V (+), 7-AAD (−))” value in data set [8] (2 × IC50, 48 h, HCT116) was determined as 56.4%. In addition, the “Live (viable cells)” value in data set [8] is reported as 30.81%.

As to `COc1ccc(N(C)c2nc(C)nc3ccccc23)cc1` [Compound 1, Verubulin], the IC50 amounted to 3100 ± 1100 nM in data set [10]; 1 ± 0.02 nM in data set [2] (64 h); 0.84 ± 0.06 nM in [3] (VA-13, 64 h); 1.1 ± 0.05 nM in data set [4] (A549, 64 h); 3.2 ± 0.7 nM in data set [6] (Homo sapiens); 1.4 ± 0.05 nM in [7] (MCF7, 64 h). The IC50 in data set [1] is 5 nM. In data set [8] (2 × IC50, 48 h, HCT116), the “apoptotic cells, early plus late” value came to 49.3%. Moreover, the “Early Apop. (Annexin V (+), 7-AAD (−))” value in [8] (setting [13]) is on record as 16.3%. Further, in [8] (setting [13]), the “Late Apop./Dead (Annexin V (+), 7-AAD (+))” value was found to be 33%. Also, the “selectivity towards tumor cells” value in data set [9] is “no selectivity”.

For `Cc1nc2c(c(N(C)c3ccccc3)n1)CCCC2` [Compound 2a, N,2-Dimethyl-N-phenyl-5,6,7,8-tetrahydroquinazolin-4-amine], the melting point was 84 to 85 °C. Besides, the half-inhibitory concentration (IC50) in data set [2] (64 h treatment, MTT) worked out at 1750 ± 230 nM. For the same compound, the IC50 in data set [3] (VA-13, 64 h treatment, MTT) was found to be 1400 ± 180 nM. Moreover, the IC50 in data set [4] (A549, 64 h treatment, MTT) is 2200 ± 260 nM. In data set [7] (MCF7, 64 h treatment, MTT), the IC50 worked out at 1840 ± 810 nM. In [11] (100 μM (very high concentration)), the “effect on microtubules (MTs)” value is on record as “intact MTs; also recorded: no effect on the microtubule cytoskeleton”. For the same compound, in [9] (2a vs. 2c, 2g vs. 2i), the “reduction of cytotoxicity on removal of para-methoxy substituent” value is 2–3 orders of magnitude.

For `COc1ccc(N(C)c2nc(N)nc3c2CCCC3)cc1` [Compound 2i, N^4-(4-Methoxyphenyl)-N^4-methyl-5,6,7,8-tetrahydroquinazolinyl-2,4-diamine], the concentration for half-maximal inhibition (IC50) in data set [2] (64 h treatment, MTT) amounted to 9.6 ± 2.2 nM; in data set [3] (VA-13, 64 h treatment, MTT), 6 ± 1.5 nM; in data set [4] (A549, 64 h treatment, MTT), 15 ± 2 nM; in data set [6] (setting [12]) it was 40 ± 10 nM; in [7] (MCF7, 64 h treatment, MTT), 10.2 ± 1.5 nM. In addition, in [8] (2 × IC50, 48 h, HCT116), the “Early Apop. (Annexin V (+), 7-AAD (−))” value is listed as 46.3%. In addition, the “Live (viable cells)” value in data set [8] came to 43.99%.

`COc1ccc2c(c1)CCCN2c1nc(C)nc2c1CCCC2` [Compound 2e, 4-(6-Methoxy-3,4-dihydroquinolin-1(2H)-yl)-2-methyl-5,6,7,8-tetrahydroquinazoline]: the IC50 in data set [10] turned out to be 26000 ± 6000 nM; in data set [2] (64 h treatment, MTT), 8.8 ± 2 nM; in data set [3] (VA-13, 64 h treatment, MTT), 7.1 ± 2 nM; in data set [4] (A549, 64 h treatment, MTT) it was 13.5 ± 2.2 nM; in [6] (setting [12]) it was 22 ± 5 nM; in data set [7] (MCF7, 64 h treatment, MTT) it was 12.6 ± 2.1 nM. In addition, the “effect on microtubules (MTs)” value in data set [11] (10 μM) is listed as “full depolymerization of MTs”. Also, the effect on microtubules entry in data set [11] (5–10 μM) is listed as “pronounced or complete disruption of microtubules”.

By IC50 is commonly meant the concentration that inhibits the measured activity by half. As a reminder, the GI50 is the concentration that inhibits growth by half. What is called melting point is the temperature, or range, at which the solid turns liquid.
